The source of these data is patent US4357470A, “Cephalosporin compounds” (Taisho Pharmaceutical Co., Ltd., priority 1980, dated 1982).

The test system of series [1] is Pseudomonas aeruginosa NC-5. The series is described as follows: Antibacterial activity, agar plate dilution method (MIC), P. aeruginosa. It is filed as cell-based. The settings on record: NC5. As for the experimental part: (§1) Antibacterial activities of the compounds of the present invention were tested about various microorganisms using an agar plate dilution method. Commercial cefazolin sodium was used as a control. The test results for 7-[D-α-(4-hydroxy-pyrazino[2,3-f]quinoline-3-carboxamido)-α-phenylacetamido]-3-(1-carboxymethyl-tetrazole-5-yl)thiomethyl-Δ^3 -cephem-4-carboxylic acid disodium salt (TC-203) and 7-[D-Δ-(4-hydroxy-pyrazino[2,3-f]quinoline-3-carboxamido)-Δ-(4-hydroxyphenyl)acetamido]-3-(1-carboxymethyl-tetrazole-5-yl)thiomethyl-Δ^3 -cephem-4-carboxylic acid disodium salt (TC-403) are expressed by MIC value (Minimum Inhibitory Concentration, μg/ml) and shown in Table 1.

Series [2] concerns Escherichia coli NIHJC-2. The series is described as follows: Antibacterial activity, agar plate dilution method (MIC), E. coli. Type of series: cell-based. The following applies: NIHJC2. As for the experimental part: as §1
The nature of series [3]: in vivo. More on the design: species or system mice. The following applies: mouse, im. As for the experimental part:
The compounds of the present invention were administered to mice intramuscularly and change of blood levels with lapse of time was determined. Commercial cefazolin sodium was used as a control.

Series [4] has as its system Proteus vulgaris IID 874. The series is described as follows: Antibacterial activity, agar plate dilution method (MIC), P. vulgaris. It is filed as cell-based. The following applies: IID874. As for the experimental part:
as §1

Series [5] deals with Staphylococcus aureus FDA 209 P. Description: Antibacterial activity, agar plate dilution method (MIC), S. aureus. Type of series: cell-based. The following applies: FDA209. The procedure: as §1
For series [6], the system named is Klebsiella pneumoniae 3K-2. The series is described as follows: Antibacterial activity, agar plate dilution method (MIC), K. pneumoniae. It is filed as cell-based. The following applies: 3K2. As for the experimental part:
as §1

The nature of series [7]: Intraperitoneal acute toxicity in rats. The following applies: dose less than 5000 mg/kg of body weight. It is filed as in vivo. The source says: The compounds of the present invention are of low toxicity.
Setting [8] is: Escherichia coli NIHJC-2, agar plate dilution, read-out: MIC.

SMILES strings stand for the structures. Counter-ions that a name gives are not always drawn. Like-named read-outs stand apart in the source and are kept apart here. Bounds are passed on as bounds.

With `O=C(O)Cn1nnnc1SCC1=C(C(=O)O)N2C(=O)[C@@H](NC(=O)[C@H](NC(=O)c3cnc4ccc5nccnc5c4c3O)c3ccccc3)[C@H]2SC1` [TC-203, 7-[D-α-(4-hydroxy-pyrazino[2,3-f]quinoline-3-carboxamido)-α-phenylacetamido]-3-(1-carboxymethyl-tetrazole-5-yl)thiomethyl-Δ^3-cephem-4-carboxylic acid disodium salt], the minimal inhibitory concentration (MIC) (in general, the smallest concentration in the dilution series that meets the test's criterion for growth inhibition) in series [1] was found to be 12.5 µg/mL; in series [2] (setting [8]), 0.78 µg/mL; in series [4], 1.56 µg/mL; in series [5] it was 3.13 µg/mL; in series [6], 0.78 µg/mL. Besides, the concentration at 0.25 h in series [3] turned out to be 150 µg/mL. This compound also gave a concentration at 0.5 h in series [3] of 162 µg/mL. The concentration at 1 h in series [3] came to 82 µg/mL. The concentration at 2 h in series [3] turned out to be 32000 ng/mL.
Turning to `O=C(O)Cn1nnnc1SCC1=C(C(=O)O)N2C(=O)[C@@H](NC(=O)[C@H](NC(=O)c3cnc4ccc5nccnc5c4c3O)c3ccc(O)cc3)[C@H]2SC1` [TC-403, 7-[D-Δ-(4-hydroxy-pyrazino[2,3-f]quinoline-3-carboxamido)-Δ-(4-hydroxyphenyl)acetamido]-3-(1-carboxymethyl-tetrazole-5-yl)thiomethyl-Δ^3-cephem-4-carboxylic acid disodium salt], the MIC in series [1] is 12.5 µg/mL; in series [2] (setting [8]), 1.56 µg/mL; in series [4] it was 3.13 µg/mL; in series [5] it was 6.25 µg/mL; in series [6] it was 1.56 µg/mL. This compound came in with a concentration at 0.25 h in series [3] of 92 µg/mL. The same compound showed a concentration at 0.5 h in series [3] of 180 µg/mL. Also, in series [3], the concentration at 1 h came out at 62 µg/mL. For the same compound, the concentration at 2 h in series [3] amounted to 42000 ng/mL. Moreover, in series [7], the intraperitoneal acute toxicity entry is recorded as “hardly shows any intraperitoneal acute toxicity in rats at a dose less than 5000 mg/kg of body weight”.
In the case of `Cc1nnc(SCC2=C(C(=O)O)N3C(=O)[C@@H](NC(=O)Cn4cnnn4)[C@H]3SC2)s1` [cefazolin sodium, reference compound], the MIC in series [1] is greater than 100 µg/mL; in series [2] (Escherichia coli), 1.56 µg/mL; in series [4], greater than 100 µg/mL; in series [5] it was less than 0.1 µg/mL; in series [6], greater than 100 µg/mL. Further, in series [3], the concentration at 0.25 h stood at 62 µg/mL. In series [3], this compound registered a concentration at 0.5 h of 42 µg/mL. This compound also came in with a concentration at 1 h in series [3] of 5.5 µg/mL.
